In patent US9126999B2, “Tetrahydropyrazolopyrimidine compounds” (EISAI R&D MANAGEMENT CO., LTD., priority 2012, dated 2015):

Tested on: BXSB-Yaa mice
Assay: BXSB-Yaa strain lupus disease model
Type: in vivo, mouse
Settings: for proteinuria: UACR; for Grade 3/4 nephritis onset: kidney histopathology
Description: Figure Legend: Twelve week old BXSB-Yaa mice were randomized into groups with equivalent median anti-dsDNA titers and treated once-a-day orally with Vehicle (Veh; 0.5% methyl-cellulose) alone or 300 mg/kg ER-892887 for 14 weeks total. (A) All mice were sacrificed at 26 weeks of age and final anti-dsDNA, anti-Sm/nRNP, and anti-RiboP titers were evaluated by ELISA as compared to titers observed in 6 wk old pre-diseased mice. (B) Approximately one week prior to sacrifice (25 weeks of age, 13 weeks of treatment), mice were housed 1-2 per cage in metabolic cages for 18 hours to collect urine, and the Urinary Albumin Creatinine Ratio (UACR, proteinuria) was determined for each animal as an indirect measure of kidney function. (C) At the time of sacrifice, kidneys were collected from individual mice, fixed in 10% formalin for 24 hours, embedded in paraffin, and H&E stained sections were generated for histopathology assessment in a blinded fashion. (D) Summary of mortality observed in the SLE-8 study. Statistical significance was determined by Mann-Whitney test for (A).
Figure Legend: Nine week old male BXSB-Yaa mice were treated once-a-day orally with Vehicle (Veh; 0.5% methyl-cellulose) alone or 100 mg/kg or 300 mg/kg ER-885454 for 15 weeks total. All mice were sacrificed at 24 weeks of age and final anti-dsDNA (A) and anti-Sm/RNP (B) titers were evaluated by ELISA. (C) Approximately one week prior to sacrifice, mice were housed 1-2 per cage in metabolic cages for 18 hours to collect urine, and the Urinary Albumin Creatinine Ratio (UACR, proteinuria) was determined for each animal as an indirect measure of kidney function. (D) At the time of sacrifice, kidneys were collected from individual mice, fixed in 10% formalin for 24 hours, embedded in paraffin, and H&E stained sections were generated for histopathology assessment in a blinded fashion. Statistical significance was determined by Mann-Whitney test for (A), (B), and (C) above.
Figure Legend: Seventeen week old BXSB-Yaa mice were randomized into two groups with equivalent median anti-dsDNA titers and treated once-a-day orally with Vehicle (Veh; 0.5% methyl-cellulose) alone or 300 mg/kg ER-885454 for 13 weeks total. All mice were sacrificed at 30 weeks of age and final anti-dsDNA (A) and anti-Sm/RNP (B) titers were evaluated by ELISA as compared to titers observed in 7 wk old pre-diseased mice. (C) Approximately one week prior to sacrifice, mice were housed 1-2 per cage in metabolic cages for 18 hours to collect urine, and the Urinary Albumin Creatinine Ratio (UACR, proteinuria) was determined for each animal as an indirect measure of kidney function. (D) At the time of sacrifice, kidneys were collected from individual mice, fixed in 10% formalin for 24 hours, embedded in paraffin, and H&E stained sections were generated for histopathology assessment in a blinded fashion. Statistical significance was determined by Mann-Whitney test for (A), (B), and (C) above.
Male BXSB-Yaa and female NZBWF1/J mice were purchased from Jackson Labs (Bar Harbor, Me.), both of which manifest with spontaneous lupus disease. Female DBA/1 mice were purchased from Harlan Laboratories (Indianapolis, Ind.) and at the indicated ages given an intraperitoneal injection of 0.5 ml pristane (2,6,10,14-Tetramethylpentadecane; Sigma, St. Louis, Mo.) to chemically induce lupus disease or of 0.5 ml PBS to generate age-matched, non-diseased control mice. Mice were dosed daily by oral administration of compound or drug in 0.5% methylcellulose, for the time period indicated.
Anti-dsDNA, -Sm/nRNP, -RiboP, and Histone titers were evaluated by standard ELISA approach. Briefly, 96-well EIA/RIA ELISA plates (Corning) were coated with 100 ul of diluted antigen in PBS for 90 minutes at room temperature as follows (final concentrations indicated): 10 U/ml Sm/nRNP complex (Immunovision), 10 ug/ml calf thymus dsDNA (Sigma), 5 U/ml RiboP (Immunovision), and 5 ug/ml Histone (Immunovision). […]

Compound | proteinuria | Grade 3/4 nephritis onset | anti-Sm/nRNP titers (once-a-day oral) | anti-dsDNA titers (once-a-day oral)
COc1ccc([C@@H]2C[C@H](C(F)(F)F)n3nc(-c4ccncc4)cc3N2)cc1OC [ER-885454] | significantly reduced proteinuria | complete prevention | significantly reduced | significantly reduced
COc1ccc([C@@H]2C[C@H](C(F)(F)F)n3nc(-c4ccc(C(=O)N5CCNCC5)cc4)cc3N2)cc1OC [ER-892887, (4-((5S,7R)-5-(3,4-dimethoxyphenyl)-7-(trifluoromethyl)-4,5,6,7-tetrahydropyrazolo[1,5-a]pyrimidin-2-yl)phenyl)(piperazin-1-yl)methanone] | trend towards reduced proteinuria | complete prevention | – | significantly reduced
